In brackets after ≈: the same amount, converted by molar mass. Activity calls are given as the source filed them. The rule behind the calls is not given here.
Assays:
[1] = test system: NCI-H157; assay: Cytotoxicity against human NCI-H157 cells at 100 uM after 48 hrs by sulforhodamine B assay; type: functional
[2] = test system: NCI-H157; assay: Cytotoxicity against human NCI-H157 cells at 10 uM after 48 hrs by sulforhodamine B assay; type: functional
[3] = test system: NCI-H157; assay: Cytotoxicity against human NCI-H157 cells at 1 uM after 48 hrs by sulforhodamine B assay; type: functional
[4] = test system: NCI-H157; assay: Cytotoxicity against human NCI-H157 cells at 0.1 uM after 48 hrs by sulforhodamine B assay; type: functional
[5] = test system: BHK-21; assay: Cytotoxicity against golden hamster BHK21 cells at 100 uM after 48 hrs by sulforhodamine B assay; type: cell-based, Mesocricetus auratus; conditions: bhk-21, 48 h
[6] = test system: BHK-21; assay: Cytotoxicity against golden hamsterBHK21 cells at 10 uM after 48 hrs by sulforhodamine B assay; type: cell-based, Mesocricetus auratus; conditions: hamster, bhk-21, 48 h
[7] = test system: BHK-21; assay: Cytotoxicity against golden hamster BHK21 cells at 1 uM after 48 hrs by sulforhodamine B assay; type: cell-based, Mesocricetus auratus; conditions: bhk-21, 48 h
[8] = test system: BHK-21; assay: Cytotoxicity against golden hamster BHK21 cells at 0.1 uM after 48 hrs by sulforhodamine B assay; type: cell-based, Mesocricetus auratus; conditions: bhk-21, 48 h
[9] = test system: NCI-H157; assay: Cytotoxicity against human NCI-H157 cells after 48 hrs by sulforhodamine B assay; type: functional, cell-based
[10] = test system: BHK-21; assay: Cytotoxicity against golden hamster BHK21 cells after 48 hrs by sulforhodamine B assay; type: cell-based, Mesocricetus auratus; conditions: bhk-21, 48 h
[11] = test system: HepG2; assay: Cytotoxicity against human HepG2 cells by MTT assay; type: functional, cell-based
[12] = test system: Agrobacterium tumefaciens; assay: Antitumor activity against Agrobacterium tumefaciens-induced tumor after 21 days by potato disc bioassay technique; type: functional
[13] = test system: Leishmania major; assay: Antileishmanial activity against Leishmania major promastigotes at 100 uM after 72 hrs by MTT assay relative to control; type: functional
[14] = test system: Leishmania major; assay: Antileishmanial activity against Leishmania major promastigotes at 10 uM after 72 hrs by MTT assay relative to control; type: functional
[15] = test system: Leishmania major; assay: Antileishmanial activity against Leishmania major promastigotes at 1 uM after 72 hrs by MTT assay relative to control; type: functional
[16] = test system: Leishmania major; assay: Antileishmanial activity against Leishmania major promastigotes at 0.1 uM after 72 hrs by MTT assay relative to control; type: functional
[17] = test system: Klebsiella pneumoniae; assay: Antibacterial activity against Klebsiella pneumoniae assessed as zone of inhibition after 24 to 48 hrs by well diffusion method; type: functional
[18] = test system: Streptococcus pyogenes; assay: Antibacterial activity against Streptococcus pyogenes assessed as zone of inhibition after 24 to 48 hrs by well diffusion method; type: functional
[19] = test system: Staphylococcus epidermidis; assay: Antibacterial activity against Staphylococcus epidermidis assessed as zone of inhibition after 24 to 48 hrs by well diffusion method; type: functional
[20] = test system: Staphylococcus aureus; assay: Antibacterial activity against Staphylococcus aureus assessed as zone of inhibition after 24 to 48 hrs by well diffusion method; type: functional
[21] = test system: Serratia marcescens; assay: Antibacterial activity against Serratia marcescens assessed as zone of inhibition after 24 to 48 hrs by well diffusion method; type: functional
[22] = test system: Pseudomonas aeruginosa; assay: Antibacterial activity against Pseudomonas aeruginosa assessed as zone of inhibition after 24 to 48 hrs by well diffusion method; type: functional
[23] = test system: Escherichia coli; assay: Antibacterial activity against Escherichia coli assessed as zone of inhibition after 24 to 48 hrs by well diffusion method; type: functional
[24] = test system: Klebsiella pneumoniae; assay: Antibacterial activity against Klebsiella pneumoniae assessed as zone of inhibition by measuring activity index after 24 to 48 hrs by well diffusion method relative to penicillin G; type: functional, organism-based
[25] = test system: Streptococcus pyogenes; assay: Antibacterial activity against Streptococcus pyogenes assessed as zone of inhibition by measuring activity index after 24 to 48 hrs by well diffusion method relative to tetracycline; type: functional, organism-based
[26] = test system: Streptococcus pyogenes; assay: Antibacterial activity against Streptococcus pyogenes assessed as zone of inhibition by measuring activity index after 24 to 48 hrs by well diffusion method relative to penicillin G; type: functional, organism-based
[27] = test system: Streptococcus pyogenes; assay: Antibacterial activity against Streptococcus pyogenes assessed as zone of inhibition by measuring activity index after 24 to 48 hrs by well diffusion method relative to ampicillin; type: functional, organism-based
[28] = test system: Streptococcus pyogenes; assay: Antibacterial activity against Streptococcus pyogenes assessed as zone of inhibition by measuring activity index after 24 to 48 hrs by well diffusion method relative to amoxicillin; type: functional, organism-based
[29] = test system: Staphylococcus epidermidis; assay: Antibacterial activity against Staphylococcus epidermidis assessed as zone of inhibition by measuring activity index after 24 to 48 hrs by well diffusion method relative to penicillin G; type: functional, organism-based
[30] = test system: Staphylococcus epidermidis; assay: Antibacterial activity against Staphylococcus epidermidis assessed as zone of inhibition by measuring activity index after 24 to 48 hrs by well diffusion method relative to ampicillin; type: functional, organism-based
[31] = test system: Staphylococcus aureus; assay: Antibacterial activity against Staphylococcus aureus assessed as zone of inhibition by measuring activity index after 24 to 48 hrs by well diffusion method relative to tetracycline; type: functional, organism-based
[32] = test system: Staphylococcus aureus; assay: Antibacterial activity against Staphylococcus aureus assessed as zone of inhibition by measuring activity index after 24 to 48 hrs by well diffusion method relative to penicillin G; type: functional, organism-based
[33] = test system: Staphylococcus aureus; assay: Antibacterial activity against Staphylococcus aureus assessed as zone of inhibition by measuring activity index after 24 to 48 hrs by well diffusion method relative to ampicillin; type: functional, organism-based
[34] = test system: Staphylococcus aureus; assay: Antibacterial activity against Staphylococcus aureus assessed as zone of inhibition by measuring activity index after 24 to 48 hrs by well diffusion method relative to amoxicillin; type: functional, organism-based
[35] = test system: Serratia marcescens; assay: Antibacterial activity against Serratia marcescens assessed as zone of inhibition by measuring activity index after 24 to 48 hrs by well diffusion method relative to penicillin G; type: functional
[36] = test system: Serratia marcescens; assay: Antibacterial activity against Serratia marcescens assessed as zone of inhibition by measuring activity index after 24 to 48 hrs by well diffusion method relative to ampicillin; type: functional
[37] = test system: Serratia marcescens; assay: Antibacterial activity against Serratia marcescens assessed as zone of inhibition by measuring activity index after 24 to 48 hrs by well diffusion method relative to amoxicillin; type: functional
[38] = test system: Pseudomonas aeruginosa; assay: Antibacterial activity against Pseudomonas aeruginosa assessed as zone of inhibition by measuring activity index after 24 to 48 hrs by well diffusion method relative to ampicillin; type: functional, organism-based
[39] = test system: Escherichia coli; assay: Antibacterial activity against Escherichia coli assessed as zone of inhibition by measuring activity index after 24 to 48 hrs by well diffusion method relative to tetracycline; type: functional

`CC[C@]1(O)C[C@H]2CN(CCc3c([nH]c4ccccc34)[C@@](C(=O)OC)(c3cc4c(cc3OC)N(C=O)[C@H]3[C@@](O)(C(=O)OC)[C@H](OC(C)=O)[C@]5(CC)C=CCN6CC[C@]43[C@@H]65)C2)C1` [VINCRISTINE] was tested, and the Activity [1] was 74.5%, the Activity [2] was 72.6% and the Activity [3] was 70.9%. The Activity [4] was 69.8%, the Activity [5] was 74.5% and the Activity [6] was 72.6%. The Activity [7] was 70.9%, the Activity [8] was 69.8% and the Activity [9] was “Dose-dependent effect”. The Activity [10] was “Dose-dependent effect”, the IC50 [11] was 0.042 µg/mL (≈ 0.0509 µM) and the Activity [12] was 100%.

With `COc1ccc(NC(=O)c2ccccc2C(=O)[O-])c([N+](=O)[O-])c1.[Na+]` the Activity [1] was 52.2%, the Activity [2] was 50.3% and the Activity [3] was 35.2%. For the same compound, the Activity [4] was 25.1%, the Activity [5] was 53.5% and the Activity [6] was 48.9%. For the same compound, the Activity [7] was 44.2%, the Activity [8] was 40.5% and the Activity [13] was 49.5%. The Activity [14] was 46.3%, the Activity [15] was 40.2% and the Activity [16] was 38.4%. The “inhibition zone (IZ)” value [17] was “inactive”, the “inhibition zone (IZ)” value [18] was “inactive” and the “inhibition zone (IZ)” value [19] was “inactive”. The “inhibition zone (IZ)” value [20] was “inactive”, the “inhibition zone (IZ)” value [21] was 7.33 mm and the “inhibition zone (IZ)” value [22] was “inactive”. The “inhibition zone (IZ)” value [23] was 5 mm, the Activity_index [24] was “inactive” and the Activity_index [25] was “inactive”. For the same compound, the Activity_index [26] was “inactive”, the Activity_index [27] was “inactive” and the Activity_index [28] was “inactive”. For the same compound, the Activity_index [29] was “inactive”, the Activity_index [30] was “inactive” and the Activity_index [31] was “inactive”. For the same compound, the Activity_index [32] was “inactive”, the Activity_index [33] was “inactive” and the Activity_index [34] was “inactive”. It also gave an Activity_index [35] of 0.92, an Activity_index [36] of 0.92 and an Activity_index [37] of 1.22. For the same compound, the Activity_index [38] was “inactive”, the Activity_index [39] was 2.5 and the Activity [9] was “Dose-dependent effect”. The Activity [10] was “Dose-dependent effect”.

Reference: ChEMBL document CHEMBL4138175, “Newly designed organotin(IV) carboxylates with peptide linkage: Synthesis, structural elucidation, physicochemical characterizations and pharmacological investigations” (Eur J Med Chem, 2018)
